Reference: patent US20240002391A1, “4-ALKOXYPYRROLO[2,1-F][1,2,4]TRIAZINES AND PREPARATION AND USES THEREOF” (BioSplice Therapeutics, Inc., priority 2022, published 2024)
pIC50: −log10 of the molar value.

Biological target: recombinant DYRK1A kinase (Homo sapiens (Human), UniProt Q13627)
Experiment: DYRK1A kinase assay (Ser/Thr 18 peptide Z-lyte FRET)
Type: biochemical
Settings: DYRK1A kinase activity, Z-lyte Ser/Thr 18 peptide, 15 μM ATP; method text calls the value IC50; read-out: EC50 (the source's name)
Summary of the method: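 Z-lyte FRET read-out: coumarin (Em 455) over fluorescein (Em 520) emission ratio, converted to percent phosphorylation after 1 h development. Reaction: 0.25 μg/mL kinase, 15 μM ATP, 4 μM peptide, 1 h RT with compound, duplicate wells. IC50s fitted by non-linear regression.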

| SMILES | pIC50 |
| --- | --- |
| COc1nc(N[C@H]2CC[C@](C)(O)CC2)nn2ccc(-c3ccc4nccnc4c3)c12 [Compound 347, trans-4-((4-Methoxy-5-(quinoxalin-6-yl)pyrrolo[2,1-f][1,2,4]triazin-2-yl)amino)-1-methylcyclohexan-1-ol] | 8.77 |
| [2H]C([2H])([2H])Oc1nc(N[C@H]2CC[C@](C)(O)CC2)nn2ccc(-c3ccc4nccnc4c3)c12 [Compound 348, trans-4-((4-(Methoxy-d3)-5-(quinoxalin-6-yl)pyrrolo[2,1-f][1,2,4]triazin-2-yl)amino)-1-methylcyclohexan-1-ol] | 8.64 |
| COc1nc(N[C@H]2CC[C@@](O)(C(F)(F)F)CC2)nn2ccc(-c3ccc4nccnc4c3)c12 [Compound 349, trans-4-((4-Methoxy-5-(quinoxalin-6-yl)pyrrolo[2,1-f][1,2,4]triazin-2-yl)amino)-1-(trifluoromethyl)cyclohexan-1-ol] | 8.18 |
| COc1nc(N[C@@H]2CN(C)C[C@@H]2F)nn2ccc(-c3ccc4nccnc4c3)c12 [Compound 350, N-((3R,4S)-4-Fluoro-1-methylpyrrolidin-3-yl)-4-methoxy-5-(quinoxalin-6-yl)pyrrolo[2,1-f][1,2,4]triazin-2-amine] | 8.85 |
| [2H]C([2H])([2H])Oc1nc(N[C@@H]2CN(C(C)=O)C[C@@H]2F)nn2ccc(-c3ccc4nccnc4c3)c12 [Compound 353, 1-((3S,4R)-3-Fluoro-4-((4-(methoxy-d3)-5-(quinoxalin-6-yl)pyrrolo[2,1-f][1,2,4]triazin-2-yl)amino)pyrrolidin-1-yl)ethan-1-one] | 8.66 |
| COc1nc(N[C@H]2CN(C3COC3)C[C@H]2F)nn2ccc(-c3ccc4nccnc4c3)c12 [Compound 356, N-((3S,4R)-4-Fluoro-1-(oxetan-3-yl)pyrrolidin-3-yl)-4-methoxy-5-(quinoxalin-6-yl)pyrrolo[2,1-f][1,2,4]triazin-2-amine] | 8.06 |
| COc1nc(NC2CCN(CC(F)(F)F)CC2)nn2ccc(-c3ccc4nccnc4c3)c12 [Compound 363, 4-Methoxy-5-(quinoxalin-6-yl)-N-(1-(2,2,2-trifluoroethyl)piperidin-4-yl)pyrrolo[2,1-f][1,2,4]triazin-2-amine] | 7.40 |
| COc1nc(NC2CCOCC2)nn2ccc(-c3ccc4nccnc4c3)c12 [Compound 366, 4-Methoxy-5-(quinoxalin-6-yl)-N-(tetrahydro-2H-pyran-4-yl)pyrrolo[2,1-f][1,2,4]triazin-2-amine] | 8.60 |
| COc1nc(N[C@@H]2CCN(C3COC3)C[C@@H]2F)nn2ccc(-c3ccc4nccnc4c3)c12 [Compound 373, N-((3S,4R)-3-Fluoro-1-(oxetan-3-yl)piperidin-4-yl)-4-methoxy-5-(quinoxalin-6-yl)pyrrolo[2,1-f][1,2,4]triazin-2-amine] | 8.54 |
| COc1nc(N[C@H]2CCN(C3COC3)C[C@H]2F)nn2ccc(-c3ccc4nccnc4c3)c12 [Compound 374, N-((3R,4S)-3-Fluoro-1-(oxetan-3-yl)piperidin-4-yl)-4-methoxy-5-(quinoxalin-6-yl)pyrrolo[2,1-f][1,2,4]triazin-2-amine] | 8.54 |
| COc1nc(N[C@@H]2CCN(C)CC2(F)F)nn2ccc(-c3ccc4nccnc4c3)c12 [Compound 375, (R)—N-(3,3-Difluoro-1-methylpiperidin-4-yl)-4-methoxy-5-(quinoxalin-6-yl)pyrrolo[2,1-f][1,2,4]triazin-2-amine] | 8.48 |
| COc1nc(NC23CC(N)(C2)C3)nn2ccc(-c3ccc4nccnc4c3)c12 [Compound 381, N1-(4-Methoxy-5-(quinoxalin-6-yl)pyrrolo[2,1-f][1,2,4]triazin-2-yl)bicyclo[1.1.1]pentane-1,3-diamine] | 8.60 |
| COc1nc(NC2CC3(COC3)C2)nn2ccc(-c3ccc4nccnc4c3)c12 [Compound 385, 4-Methoxy-5-(quinoxalin-6-yl)-N-(2-oxaspiro[3.3]heptan-6-yl)pyrrolo[2,1-f][11,2,4]triazin-2-amine] | 8.77 |
| COc1nc(NC2CC3(CCN(C(C)=O)CC3)C2)nn2ccc(-c3ccc4nccnc4c3)c12 [Compound 386, 1-(2-((4-Methoxy-5-(quinoxalin-6-yl)pyrrolo[2,1-f][1,2,4]triazin-2-yl)amino)-7-azaspiro[3.5]nonan-7-yl)ethan-1-one] | 9.05 |
| COc1nc(N[C@H]2C[C@@H]3CN(C(C)=O)C[C@@H]3C2)nn2ccc(-c3ccc4nccnc4c3)c12 [Compound 387, 1-((3aR,5s,6aS)-5-((4-Methoxy-5-(quinoxalin-6-yl)pyrrolo[2,1-f][1,2,4]triazin-2-yl)amino)hexahydrocyclopenta[c]pyrrol-2(1H)-yl)ethan-1-one] | 9.15 |
| COc1nc(NC2CCC3(CC2)COC3)nn2ccc(-c3ccc4nccnc4c3)c12 [Compound 390, 4-Methoxy-5-(quinoxalin-6-yl)-N-(2-oxaspiro[3.5]nonan-7-yl)pyrrolo[2,1-f][1,2,4]triazin-2-amine] | 8.52 |
| C[C@]1(O)C[C@H](Nc2nc(OC3COC3)c3c(-c4ccc5nccnc5c4)ccn3n2)C1 [Compound 391, cis-1-Methyl-3-((4-(oxetan-3-yloxy)-5-(quinoxalin-6-yl)pyrrolo[2,1-f][1,2,4]triazin-2-yl)amino)cyclobutan-1-ol] | 8.14 |
| COc1nc(N[C@H]2C[C@@](C)(NC(=O)C3(C#N)CC3)C2)nn2ccc(-c3ccn4nccc4c3)c12 [Compound 394, 1-Cyano-N-((1s,3s)-3-((4-methoxy-5-(pyrazolo[1,5-a]pyridin-5-yl)pyrrolo[2,1-f][1,2,4]triazin-2-yl)amino)-1-methylcyclobutyl)cyclopropane-1-carboxamide] | 8.68 |

Further compounds by rising pIC50, results first:

| pIC50 | SMILES |
| --- | --- |
| 6.75 | COc1nc(N[C@@H](C)c2ccccn2)nn2ccc(-c3ccn4nccc4c3)c12 [Compound 393, (S)-4-Methoxy-5-(pyrazolo[1,5-a]pyridin-5-yl)-N-(1-(pyridin-2-yl)ethyl)pyrrolo[2,1-f][1,2,4]triazin-2-amine] |
| 7.46 | C[C@]1(O)CC[C@H](Nc2nc(O)c3c(-c4ccc5nccnc5c4)ccn3n2)CC1 [Compound 346, 2-((trans-4-Hydroxy-4-methylcyclohexyl)amino)-5-(quinoxalin-6-yl)pyrrolo[2,1-f][11,2,4]triazin-4-ol] |
| 8.09 | COc1nc(N[C@H]2CN(C)C[C@H]2F)nn2ccc(-c3ccc4nccnc4c3)c12 [Compound 351, N-((3S,4R)-4-Fluoro-1-methylpyrrolidin-3-yl)-4-methoxy-5-(quinoxalin-6-yl)pyrrolo[2,1-f][1,2,4]triazin-2-amine] |
| 8.22 | COc1nc(NC2CCN(CC(F)F)CC2)nn2ccc(-c3ccc4nccnc4c3)c12 [Compound 362, N-(1-(2,2-Difluoroethyl)piperidin-4-yl)-4-methoxy-5-(quinoxalin-6-yl)pyrrolo[2,1-f][1,2,4]triazin-2-amine] |
| 8.39 | COc1nc(N[C@H]2CCN(CCF)C[C@H]2F)nn2ccc(-c3ccc4nccnc4c3)c12 [Compound 372, N-((3R,4S)-3-Fluoro-1-(2-fluoroethyl)piperidin-4-yl)-4-methoxy-5-(quinoxalin-6-yl)pyrrolo[2,1-f][1,2,4]triazin-2-amine] |
| 8.40 | COc1nc(N[C@H]2CCN(C)C[C@H]2F)nn2ccc(-c3ccc4nccnc4c3)c12 [Compound 368, N-((3R,4S)-3-Fluoro-1-methylpiperidin-4-yl)-4-methoxy-5-(quinoxalin-6-yl)pyrrolo[2,1-f][1,2,4]triazin-2-amine] |
| 8.48 | COc1nc(N[C@@H]2CCN(C)C[C@@H]2F)nn2ccc(-c3ccc4nccnc4c3)c12 [Compound 367, N-((3S,4R)-3-Fluoro-1-methylpiperidin-4-yl)-4-methoxy-5-(quinoxalin-6-yl)pyrrolo[2,1-f][1,2,4]triazin-2-amine] |
| 8.48 | COc1nc(N[C@@H]2CCN(C3COC3)CC2(F)F)nn2ccc(-c3ccc4nccnc4c3)c12 [Compound 379, (R)—N-(3,3-Difluoro-1-(oxetan-3-yl)piperidin-4-yl)-4-methoxy-5-(quinoxalin-6-yl)pyrrolo[2,1-f][1,2,4]triazin-2-amine] |
| 8.55 | COc1nc(NC2CCN(C3COC3)CC2)nn2ccc(-c3ccc4nccnc4c3)c12 [Compound 365, 4-Methoxy-N-(1-(oxetan-3-yl)piperidin-4-yl)-5-(quinoxalin-6-yl)pyrrolo[2,1-f][1,2,4]triazin-2-amine] |
| 8.57 | COc1nc(N[C@@H]2CN(C3COC3)C[C@@H]2F)nn2ccc(-c3ccc4nccnc4c3)c12 [Compound 355, N-((3R,4S)-4-Fluoro-1-(oxetan-3-yl)pyrrolidin-3-yl)-4-methoxy-5-(quinoxalin-6-yl)pyrrolo[2,1-f][1,2,4]triazin-2-amine] |
| 8.74 | COc1nc(NC23CC(NC(C)=O)(C2)C3)nn2ccc(-c3ccc4nccnc4c3)c12 [Compound 382, N-(3-((4-Methoxy-5-(quinoxalin-6-yl)pyrrolo[2,1-f][1,2,4]triazin-2-yl)amino)bicyclo[1.1.1]pentan-1-yl)acetamide] |
| 8.85 | COc1nc(N[C@H]2C[C@]3(CCN3C(C)=O)C2)nn2ccc(-c3ccc4nccnc4c3)c12 [Compound 383, 1-((4s,6r)-6-((4-Methoxy-5-(quinoxalin-6-yl)pyrrolo[2,1-f][1,2,4]triazin-2-yl)amino)-1-azaspiro[3.3]heptan-1-yl)ethan-1-one] |
| 8.89 | COc1nc(NC2CCC3(CC2)CN(C(C)=O)C3)nn2ccc(-c3ccc4nccnc4c3)c12 [Compound 389, 1-(7-((4-Methoxy-5-(quinoxalin-6-yl)pyrrolo[2,1-f][1,2,4]triazin-2-yl)amino)-2-azaspiro[3.5]nonan-2-yl)ethan-1-one] |
| 8.92 | COc1nc(N[C@@H]2C[C@@H]3CN(C(C)=O)C[C@@H]3C2)nn2ccc(-c3ccc4nccnc4c3)c12 [Compound 388, 1-((3aR,5r,6aS)-5-((4-Methoxy-5-(quinoxalin-6-yl)pyrrolo[2,1-f][1,2,4]triazin-2-yl)amino)hexahydrocyclopenta[c]pyrrol-2(1H)-yl)ethan-1-one] |
